Key:
microglia = conditions: any of the concentrations tested (data not shown)
Method: (§1) Activated microglia and astroglia are known to produce excessive amount of NO having the potential of damaging neurons in neurodegenerative disorders. We investigated the effect of NaPB on the expression of iNOS in microglia. LPS is a prototype inducer of various proinflammatory molecules in different cell types including mouse microglia. Therefore, primary mouse microglia preincubated with different doses of NaPB for 6 h were stimulated with LPS under serum-free condition. […] We used trichostatin A (TSA) and sodium butyrate (NaBu) for this purpose.

p21^ras = conditions: 500 μM preincubation
Method: A) Mouse BV-2 microglial cells preincubated with different concentrations of FTI and GGTI were stimulated with LPS for 60 min followed by monitoring the activation of NF-κB by EMSA. B) Cells preincubated with different concentrations of FTI and GGTI were stimulated with LPS for 10 min followed by monitoring the production of superoxide. […] C) Cells were transfected with Δp21^ras, Δp21^rac or an empty vector using Lipofectamine Plus. Twenty-four hour after transfection, cells were stimulated with LPS followed by monitoring superoxide production at 15 and 30 ‘rain of stimulation. ^ap<0.001 vs control; ^bp<0.001 vs LPS-15 min; ^cp<0.001 vs LPS-30 min. D) Cells preincubated with 500 μM NaPB were stimulated with LPS. At different time points, activation of p21^ras and p21^rac was monitored. Results represent three independent experiments.
Next, we examined the effect of NaPB on the activation of p21^ras and p21^rac.
Activation of p21^ras and p21^rac: Activation of p21^ras was monitored. Briefly, after 6 h of MPTP insult, ventral midbrain was dissected out and frozen immediately on dry ice. […] Then the amount of activated p21^ras was determined in GST beads by a Western blot using a p21^ras specific antibody.

[1] = system: chronic MPTP mouse model of PD; conditions: oral 100 mg/kg body wt/d from the third injection of MPTP/probenecid
Method: (§7) A) Six to eight week old male C57BL/6 mice received 10 injections of MPTP (s.c.; 25 mg/kg body weight) together with 10 injections of probenecid (i.p.; 250 mg/kg body weight) for 5 weeks. Control group of mice received only saline. One group of mice were treated with NaPB (100 mg/kg body weight/d) via gavage from the 3rd injection of MPTP/probenecid and continued for 1 week thereafter. Mice were tested for different motor tasks [horizontal activity (C), number of movements (D), rearing (E), and stereotypy (F)] one week after the last injection of MPTP followed by measuring the level of DA in striatum (B). Data are means+SEM of eight mice per group. ^ap<0.001 vs saline; ^bp<0.001 vs MPTP; p<0.05 vs saline; ^dp<0.05 vs MPTP.
(§8) We examined if NaPB was capable of protecting neurons in a chronic model (FIG. 10A). […] We initiated oral NaPB treatment (100 mg/kg body wt/d) from the third injection of MPTP/probenecid (FIG. 10A). […]
Behavioral analyses: Two types of behavioral experiments were conducted. This included open field experiment for locomotor activity and rotorod experiment for feet movement. .Locomotor activity was measured after 7 d of the last dose of MPTP injection in Digiscan Monitor (Omnitech Electronics, Inc., Columbus, Ohio). […] [sequence] software was used to analyze and store horizontal and vertical activity data, which were monitored automatically by infra-red beams.

primary mouse microglia = assay: LPS-induced NO (nitrite) production in primary mouse microglia; assay type: cell-based
Method: Primary mouse microglia were treated with different concentrations of NaPB for 6 h followed by stimulation with LPS under serum-free condition. After 24 h of stimulation, concentrations of nitrite were measured in supernatants (A) and the level of iNOS protein was monitored in cells by Western blot (B). […] After 5 h of stimulation, the expression of iNOS mRNA was monitored by semi-quantitative RT-PCR (C). Cells preinctibated with different concentration of trichostatin A (TSA) and sodium butyrate (NaBu) for 6 h were stimulated with LPS for 24 h under serum-free condition followed by monitoring the level of nitrite in supernatants (p). […] Primary human astroglia isolated from fetal brain tissues were treated with different concentrations of NaPB for 6 h followed by stimulation with IL-1β under serum-free condition. After 48 h of stimulation, concentrations of nitrite (E) were measured in supernatants. Human astroglia plated at 70-80% confluence in 12-well plates were co-transfected with 0.25 μg of phiNOS(7.2)Luc and 12.5 ng of pRL-TK using the Lipofectamine-Plus (Invitrogen). Twenty-four h after transfection, cells received NaPB. After 6 h of incubation, cells were stimulated with IL-1β (20 ng/ml) for 12 h. Firefly (ff-Luc) and Renilla (r-Luc) luciferase activities were obtained by analyzing the total cell extract (F).
as §1
Isolation of Mouse Microglia: Microglia were isolated from mixed glial cultures. Briefly, on day 7-9, the mixed glial cultures were washed three times with Dulbecco's modified Eagle's medium/F-12 and subjected to shaking at 240 rpm for 2 h at 37° C. on a rotary shaker. The floating cells were washed and seeded on to plastic tissue culture flasks and incubated at 37° C. for 1 h. The attached cells were seeded onto new plates for further studies. […] Mouse BV-2 microglial cells (kind gift from Virginia Bocchini of Universityof Perugia) were also maintained and induced as indicated above.

iNOS [2] = system: iNOS
Method: (§2) A) Mice were treated with NaPB (200 mg/kg body wt/d) from 3 h after the last injection of MPTP. […] The mRNA expression of TNF-α, iNOS and IL-1β was analyzed by semi-quantitative RT-PCR (C) and quantitative real-time PCR (D).
(§3) Semi-quantitative RT-PCR analysis for proinflammatory molecules (iNOS, IL-1β and TNF-α) and glial cell markers: Total RNA was isolated from ventral midbrain using Ultraspec-II RNA reagent (Biotecx .Laboratories, Inc., Houston, Tex.) following manufacturer's protocol. To remove any contaminating genomic DNA, total RNA was digested with DNase. RT-PCR was carried out using a RT-PCR kit (Clontech., Mountain View, Calif.) and following primers.
(§4) Real-time PCR analysis: It was performed in the ABI-Prism7700 sequence detection system (Applied Biosystems, Foster City, Calif.) using TaqMan Universal Master mix and optimized concentrations of FAM-labeled probes and primers.

TNF-α [3] = conditions: 200 mg/kg body wt/d from 3 h after last MPTP; RT-PCR, real-time PCR
Method: as §2, §3, §4

IL-1β [4] = conditions: 200 mg/kg body wt/d from 3 h after last MPTP; RT-PCR, real-time PCR
Method: as §2, §3, §4

[5] = system: RelA p65 at the mouse iNOS promoter; conditions: 0.5 mM, 6 h preincubation, LPS 2 h; proximal NF-κB binding site
Method: D) Cells preincubated with 0.5 mM NaPB for 6 h were stimulated with LPS for 2 h followed by monitoring the recruitment of RelA p65 to the mouse iNOS promoter by ChIP assay.
Therefore, next we examined the effect of NaPB on the recruitment of p65 to the proximal NF-κB binding site of the iNOS promoter.
Chromatin immunoprecipitation (CUP): ChIP assays were performed using a ChIP assay kit (Upstate Biotechnology, Lake Placid, N.Y.). Briefly, 2×10^6 microglial cells preincubated with gemfibrozil for 6 h were stimulated with LPS. After 3 h of stimulation, cells were fixed by adding formaldehyde (1% final concentration), and cross-linked adducts were resuspended and sonicated, resulting in an average chromatin fragment size of 400 bp. ChIP was performed on the cell lysate by overnight incubation at 4° C. with 2 μg of antibodies against p65 followed by incubation with protein G agarose (Santa Cruz Biotechnology) for 2 h. The beads were washed and incubated with elution buMr. To reverse the cross-linking and purify the DNA, precipitates were incubated in a 65° C. incubator overnight and digested with proteinase K. DNA samples were then purified, precipitated, and precipitates were washed with 75% ethanol, air-dried, and resuspended in TE buffer.

iNOS [6] = system: iNOS; remark: listed apart in the source
Method: (§5) Mouse BV-2 microglial cells were treated with different concentrations of NaPB for 6 h followed by stimulation with 1 μM. MPP under serum-free condition. After 5 h of stimulation, the mRNA expression of iNOS, IL-1β and TNF-α was monitored by semi-quantitative RT-PCR (A) and quantitative real-time PCR (C, iNOS; D, IL-1β; E, TNF-α). After 24 h of stimulation, the protein expression of iNOS was monitored by Western blot (B).
(§6) Glial inflammation is a critical component of PD pathogenesis which is mirrored in MPTP mouse models. The neurotoxic effect of MPTP depends on its conversion into MPP+. In glial cells, MAO-B converts MPTP to MPP+, which then leads to glial activation. MPP+ is able to stimulate the microglial expression of inflammatory molecules including NO, TNF-α, IL-1β, and IL-6. Although, a well characterized receptor for MPP+ was not known in microglial cells until recent past, low dose of MPP+ stimulates microglial activation via the engagement of cysteinyl leukotriene receptor (CysLT1R), MPP+ dependent activation of CysLT1R and its subsequent translocation from plasma membrane to cytosol plays a critical role in the process of microglial activation. Therefore, we investigated MPP+ could induce the expression of proinflammatory molecules microglia and if NaPB suppressed such induction.
as §4

TNF-α [7] = conditions: different concentrations, 6 h preincubation, 1 μM MPP+ 5 h
Method: as §5, §6, §4

IL-1β [8] = conditions: different concentrations, 6 h preincubation, 1 μM MPP+ 5 h
Method: as §5, §6, §4

[9] = system: chronic MPTP mouse model of PD; conditions: oral 100 mg/kg body wt/d from the third injection of MPTP/probenecid; remark: listed apart in the source
Method: as §7, §8
HPLC analysis of striatal dopamine and its metabolite levels: Striatal level of dopamine, DOPAC (3,4-dihydroxyphenylacetic acid) and HVA (homovanillic acid) was quantified. […] After pH adjustment and filtration, lOul of supernatant was injected onto an Eicompak SC-3ODS column (Complete Stand-Alone HPLC-ECD System EiCOMITTEC-500 from JM Science Inc., Grand Island, N.Y.) and analyzed following manufacturer's protocol.

sodium phenylbutyrate [NaPB]
toxicity to microglia (MTT) (microglia): not toxic
LPS-induced activation of p21^ras (p21^ras): markedly suppressed
locomotor activities (horizontal activity, number of movements, rearing, stereotypy) [1]: improved
inhibition of LPS-induced production of NO (primary mouse microglia; 1 or 2 h preincubation (data not shown)): not sufficient
inhibition of LPS-induced production of NO (primary mouse microglia; higher concentrations (>200 μM), 6 h preincubation): markedly suppressed
inhibition of LPS-induced production of NO (primary mouse microglia; lower concentration (100 μM), 6 h preincubation): not effective
MPTP-induced mRNA expression of iNOS in the nigra (iNOS [2]; 200 mg/kg body wt/d from 3 h after last MPTP, RT-PCR, real-time PCR): strongly inhibited
expression of iNOS mRNA in the nigra, time course (iNOS [2]; 200 mg/kg body wt/d gavage from 1 d prior to MPTP, all time points tested (up to 24 h)): markedly inhibited
MPTP-induced expression of iNOS protein (iNOS [2]; 200 mg/kg body wt/d oral from 3 h after last MPTP, 24 h): suppressed
MPTP-induced mRNA expression of TNF-α in the nigra (TNF-α [3]): strongly inhibited
MPTP-induced mRNA expression of IL-1β in the nigra (IL-1β [4]): strongly inhibited
recruitment of p65 to the iNOS promoter [5]: inhibited
MPP+-induced iNOS mRNA expression (iNOS [6]; 6 h preincubation, 1 μM MPP+ 5 h): suppressed
MPP+-induced iNOS protein expression (iNOS [6]; 6 h preincubation, 1 μM MPP+ 24 h, Western blot): suppressed
RasV12-induced expression of iNOS mRNA (iNOS [6]; RasV12-transfected cells, NaPB 6 h): attenuated
MPP+-induced expression of TNF-α mRNA (TNF-α [7]): inhibited
MPP+-induced expression of IL-1β mRNA (IL-1β [8]): inhibited
striatal DA [9]: significantly protected
